The text below walks through data of paper PMC3697191 (Journal of Pharmacy & Bioallied Sciences, 2013).

Converted amounts (≈) assume the structure as drawn. Some results are limits rather than exact numbers.

For data set [1], the system named is Mycobacterium tuberculosis H37Rv. In words: Microplate Alamar Blue assay. The conditions noted are these: for MIC: Mycobacterium tuberculosis, H37RV, 120 h, read-out: M. tuberculosis MIC, H37Rv, microplate Alamar Blue assay; for times more active than Pyrazinamide (MIC) / times more active than streptomycin (MIC): M. tuberculosis H37Rv. The data set is classed as cell-based.

For another data set, the system named is B. substilis. Briefly: MIC by two-fold serial dilution. In kind it is cell-based, Bacillus subtilis.
The subject of data set [2] is mouse embryonic fibroblasts cell line (NIH 3T3). The conditions noted are these: SI = IC50 (NIH 3T3) / MIC (M. tuberculosis H37Rv).
The next data set can be described thus: in vitro. The conditions noted are these: mouse.

For the molecule `COc1cc(C=NC2=NN(c3ccccc3)C(=O)C2=NNc2nc(-c3ccccc3)cs2)ccc1O` [TZP4j, 3-[[(4-hydroxy-3-methoxyphenyl)methylidene]amino]-1-phenyl-4-[2-(4-phenyl-1,3-thiazol-2-yl) hydrazin-1-ylidene]-4,5-dihydro-1H-pyrazol-5-one], the MIC in data set [1] amounted to 25.2 µM (≈ 12.5 µg/mL). Also, the “times more active than Ciprofloxacin (MIC)” value with B. substilis amounted to 2.99.

For the molecule `O=C1C(=NNc2nc(-c3ccccc3)cs2)C(N=Cc2ccc(O)c(O)c2)=NN1c1ccccc1` [TZP4h, 3-[[(3,4-dihydroxyphenyl)methylidene]amino]-1-phenyl-4-[2-(4-phenyl-1,3-thiazol-2-yl) hydrazin-1-ylidene]-4,5-dihydro-1H-pyrazol-5-one], in data set [1], the “times more active than Pyrazinamide (MIC)” value amounted to 3.9, the “times more active than streptomycin (MIC)” value is 1.69 and the MIC came out at 6.48 µM (≈ 3.13 µg/mL). The “times more active than Ciprofloxacin (MIC)” value in the data set with B. substilis is 1.45. In addition, in data set [2], the Selectivity index stood at 199.07.

The molecule `O=C1C(=NNc2nc(-c3ccccc3)cs2)C(N=Cc2ccc(Cl)cc2)=NN1c1ccccc1` [TZP4d, 3-[[(4-chlorophenyl)methylidene]amino]-1-phenyl-4-[2-(4-phenyl-1,3-thiazol-2-yl) hydrazin-1-ylidene]-4,5-dihydro-1H-pyrazol-5-one] displayed an IC50 in the data set “in vitro” above 1000 µM. The same molecule gave a Selectivity index in data set [2] of 22.37.

Molecule `O=C1C(=NNc2nc(-c3ccccc3)cs2)C(N=Cc2cccc(Cl)c2)=NN1c1ccccc1` [TZP4c, 3-[[(3-chlorophenyl)methylidene]amino]-1-phenyl-4-[2-(4-phenyl-1,3-thiazol-2-yl) hydrazin-1-ylidene]-4,5-dihydro-1H-pyrazol-5-one] gave an IC50 in the data set “in vitro” above 1000 µM. The Selectivity index in data set [2] is 82.85.

Take `O=C1C(=NNc2nc(-c3ccccc3)cs2)C(N=Cc2ccccc2O)=NN1c1ccccc1` [TZP4f, 3-[[(2-hydroxyphenyl)methylidene]amino]-1-phenyl-4-[2-(4-phenyl-1,3-thiazol-2-yl) hydrazin-1-ylidene]-4,5-dihydro-1H-pyrazol-5-one]: the minimum inhibitory concentration (MIC) in data set [1] turned out to be 53.6 µM (≈ 25 µg/mL). In addition, the Selectivity index in data set [2] was found to be 24.44.

For `CN(C)c1ccc(C=NC2=NN(c3ccccc3)C(=O)C2=NNc2nc(-c3ccccc3)cs2)cc1` [TZP4k, 3-[{[4-(dimethylamino)phenyl]methylidene}amino]-1-phenyl-4-[2-(4-phenyl-1,3-thiazol-2-yl) hydrazin-1-ylidene]-4,5-dihydro-1H-pyrazol-5-one], the MIC in data set [1] is 13 µM (≈ 6.4 µg/mL).

In the case of `NC(=O)c1cnccn1` [Pyrazinamide, reference compound], in data set [1], the MIC amounted to 25.4 µM (≈ 3.12 µg/mL).

On to `COc1cccc(C=NC2=NN(c3ccccc3)C(=O)C2=NNc2nc(-c3ccccc3)cs2)c1` [TZP4i, 3-[[(3-methoxyphenyl)methylidene]amino]-1-phenyl-4-[2-(4-phenyl-1,3-thiazol-2-yl) hydrazin-1-ylidene]-4,5-dihydro-1H-pyrazol-5-one], for which the minimal inhibitory concentration (MIC) in data set [1] was found to be 26 µM (≈ 12.5 µg/mL).

With `O=C1C(=NNc2nc(-c3ccccc3)cs2)C(N=Cc2ccccc2Cl)=NN1c1ccccc1` [TZP4b, 3-[[(2-chlorophenyl)methylidene]amino]-1-phenyl-4-[2-(4-phenyl-1,3-thiazol-2-yl) hydrazin-1-ylidene]-4,5-dihydro-1H-pyrazol-5-one], half-maximal inhibition in the data set “in vitro” (IC50) was put at 990 µM.

For `O=C1C(=NNc2nc(-c3ccccc3)cs2)C(N=Cc2ccc([N+](=O)[O-])cc2)=NN1c1ccccc1` [TZP4l, 3-[[(4-nitrophenyl)methylidene]amino]-1-phenyl-4-[2-(4-phenyl-1,3-thiazol-2-yl) hydrazin-1-ylidene]-4,5-dihydro-1H-pyrazol-5-one], the IC50 in the data set “in vitro” was above 1000 µM. In data set [2], this molecule gave a Selectivity index of 20.32.

Regarding `[H]/N=C(/N)N[C@H]1[C@H](O)[C@@H](O)[C@H](O[C@@H]2O[C@@H](C)[C@](O)(C=O)[C@H]2O[C@@H]2O[C@@H](CO)[C@H](O)[C@@H](O)[C@@H]2NC)[C@@H](N/C(N)=N\[H])[C@@H]1O` [Streptomycin, reference compound], the MIC in data set [1] is 11 µM (≈ 6.4 µg/mL).

Turning to `O=C1C(=NNc2nc(-c3ccccc3)cs2)C(N=Cc2ccc(O)cc2O)=NN1c1ccccc1` [TZP4g, 3-[[(2,4-dihydroxyphenyl)methylidene]amino]-1-phenyl-4-[2-(4-phenyl-1,3-thiazol-2-yl) hydrazin-1-ylidene]-4,5-dihydro-1H-pyrazol-5-one], in data set [1], the “times more active than Pyrazinamide (MIC)” value amounted to 1.69, the “times more active than streptomycin (MIC)” value stood at 3.91 and the MIC came to 12.9 µM (≈ 6.25 µg/mL). In addition, the IC50 in the data set “in vitro” is above 1000 µM. Besides, the “times more active than Ciprofloxacin (MIC)” value in the data set on B. substilis is reported as 1.45. In addition, the Selectivity index in data set [2] is 168.88.

Usually MIC stands for the least concentration at which growth counts as inhibited. What is called IC50 is the concentration that inhibits the measured activity by half. A high value points to weaker potency in that assay.
